# Read-outs that look alike come from different tables or passages of the source. Bridge positions count the residues as written; N and C are the ends. Peptide text beside a SMILES is read from it.
# How the values were obtained:
# [1] = system: human peripheral blood leukocytes (PBL); assay: Cytokine/chemokine release by TLR agonist-stimulated peripheral blood leukocytes (Milliplex); format: cell-based
# Procedure: EDTA-anticoagulated blood was obtained from healthy adult volunteers as approved by the Institutional Review Board at USC (protocol # HS-09-00280). Peripheral blood leukocytes (PBL) were harvested from 10–15 ml whole blood after centrifugation at 200× g. Cells were washed twice with 3–5 ml of RPMI, counted with a hemocytometer, and suspended to a cell density of 5×10^5 cells/ml in RPMI +5% human EDTA-plasma. PBLs were stimulated for 4 h with either 0.9 µg/ml ssRNA40, 30 ng/ml S. typhimurium flagellin, 3.3×10^7 CFU/ml heat-killed L. monocytogenes (HKLM), 3 ng/ml E. coli K12 LPS, or 100 CFU/ml of the clinical E. coli isolate. Cytokines/chemokines were quantified using a Milliplex MAP kit on a BioRad Bioplex HTF Luminex reader at the Beckman Center for Immune Monitoring at USC-Norris Cancer Center.
# [2] = system: human EDTA-anti-coagulated blood diluted 1∶10; assay: TNF release assay in stimulated diluted whole blood (ELISA); format: cell-based
# THP-1 monocytic cells = assay: TNF release assay in LPS-stimulated THP-1 monocytes (ELISA); format: cell-based, human; conditions: THP-1 in RPMI +5% human EDTA-plasma, 1 ng/ml K12 LPS, 4 h, N = 2
# Procedure: THP-1 monocytic cells (ATCC, Manassas, VA) were grown and maintained in RPMI-1640 medium containing 10% fetal bovine serum and penicillin/streptomycin. Cells were harvested by centrifugation, washed with RPMI-1640 medium and suspended at 5×10^5 cells/ml in fresh medium containing 5% human EDTA plasma.
# Peptides (RTDs 1–5, human neutrophil α-defensins) were aliquoted into wells of pyrogen-free 12- or 24-well plates wherein final peptide concentrations were 0–10 µg/ml. Wells were inoculated with 1×10^5 CFU/ml S. aureus or 100 CFU/ml E. coli, or 1–3 ng/ml of E. coli K12 LPS. Samples (5–10 µl) containing peptide or bacteria/LPS were placed on opposite sides of the plate well. Mixing commenced with the addition of 0.5 to 2.0 ml of 1∶10 diluted blood, PBLs (5×10^5/ml), or THP-1 cells (2–5×10^5 cells/ml). Plates were incubated at 37°C in 5% CO2 for 4 h with gentle mixing. […] Incubation mixtures were centrifuged at 200× g for 10 min at 22°C and supernatants were clarified by centrifugation at 23,000× g for 15 min at 4°C. Supernatant TNF was quantified by sandwich ELISA (OptEIA II; BD Biosciences; Hu TNF-α, Invitrogen) per suppliers’ directions, using a SpectraMax Plate Reader.
# [3] = LPS neutralization assay (Limulus amoebocyte lysate); format: biochemical, Escherichia coli; conditions: LAL assay, 0–10 µg/ml, N = 4
# Procedure: To each sample 25 µl of Limulus amoebocyte lysate (LAL; Lonza) was added and incubated for 10 min at 37°C after which 100 µl of LAL substrate was added and incubated for 6 min at 37°C. Reactions were quenched with 50 µl of 25% HOAc and read spectrophotometrically at 405 nm.
# E. coli = assay: Killing of E. coli during pre-incubation with peptide; format: cell-based, Escherichia coli; conditions: 100 CFU/ml E. coli, 10 µg/ml peptide in RPMI
# [4] = system: leukocytes / target cells; assay: Cytotoxicity by trypan blue staining in the in vitro incubations; format: cell-based, human; conditions: TNF release incubations in blood, 4 h
# BALB/c mice = assay: Mouse exposure study, repeated subcutaneous injection; format: in vivo
# Procedure: Twenty four h after the fourth injection, mice were euthanized with CO2, blood was collected by cardiac puncture, and tissues were harvested and fixed in 10% buffered formalin. Histopathologic examination was performed on sections of heart, lung, liver, spleen, kidney, and injection site skin and subcutaneous tissue. A basic metabolic panel (UC Davis-William R. Pritchard Veterinary Medical Teaching Hospital) was performed on serum samples obtained by cardiac puncture at the time of euthanasia.
# [5] = system: BALB/c mice with CLP polymicrobial sepsis; assay: Cecal-ligation/puncture (CLP) induced sepsis; format: in vivo, mouse
# Procedure: Polymicrobial peritonitis was induced in 6–8 week old BALB/c mice by CLP as described, [21]. Briefly, laparotomy was performed on anesthetized animals and the cecum was ligated below the ileocecal valve. Both walls of the cecum were punctured twice with an 18-gauge needle, and the surgical wound closed with 3–0 nylon suture. All animals fully recovered within 60 min. […] Animal health was evaluated daily for 28 days. As above, mice were euthanized when they became moribund.
# [6] = human whole blood, data not shown
# [7] = rat whole blood, data not shown
# [8] = mouse whole blood, data not shown
# [9] = system: BALB/c mice challenged with E. coli K12; conditions: 8×10^8 CFU E. coli K12 i.p., single s.c. dose 5 mg/kg at challenge, n = 13
# DA rats = system: DA rats; parameters: method as in Schaal et. al, manuscript in preparation; conditions: repetitive (8–15 injections) s.c. challenge, after 8 weeks; ref Schaal et. al, manuscript in preparation; cited from earlier work
# [10] = system: SARS-coronavirus (SARS-CoV); conditions: cited from earlier work
# host cells = conditions: cited from earlier work
# Text: The only detected tissue effect as ...
# in vitro = conditions: human, EDTA plasma
# [11] = ref D. Tran & M.E. Selsted, unpublished data, cited from earlier work
# [12] = PBL stimulated 4 h with 0.9 µg/ml ssRNA40 (TLR8 agonist), simultaneous addition of 10 µg/ml peptide
compound,measurement,setting,value
"CC[C@H](C)[C@@H]1NC(=O)[C@@H]2CSSC[C@H](NC(=O)[C@H](CCCNC(=N)N)NC(=O)[C@@H]3CSSC[C@H](NC1=O)C(=O)N[C@@H]([C@@H](C)O)C(=O)N[C@@H](CCCNC(=N)N)C(=O)NCC(=O)N[C@@H](Cc1ccccc1)C(=O)N3)C(=O)N[C@@H](CC(C)C)C(=O)N[C@H]1CSSC[C@H](NC(=O)[C@H](C(C)C)NC(=O)CNC(=O)[C@H](CCCNC(=N)N)NC(=O)[C@H](CCCNC(=N)N)NC1=O)C(=O)N[C@@H](CCCNC(=N)N)C(=O)N2 [RTD-1] (cyclo(GFCRCLCRRGVCRCICTR); disulfide 3-16, 5-14, 7-12)","effect on induced levels of chemokines CXCL8 (IL-8), CCL2 (MCP-1), CCL3 (MIP-1α), CCL4 (MIP-1β)","[1]; HKLM-stimulated PBL, 10 µg/ml peptide, 4 h",no suppression
same,suppression of supernatant IL-1β level,[1]; [12],95%
same,suppression of supernatant IL-8 level,[1]; [12],68%
same,effect on VEGF-A,[1]; RTD-1 treatment of PBLs,reproducible elevation
same,effect of peptide alone on cytokine/chemokine release,"[1]; unstimulated leukocytes, 10 µg/ml peptide alone, exception VEGF and to a lesser degree CCL2 (MCP-1)",little effect
same,blockade of TNF release,"[2]; E. coli pre-treated with 10 µg/ml peptide for 0–120 min before addition of blood, 4 h, all time-points",complete blockade
same,hierarchy of anti-TNF potencies,"[2]; E. coli-stimulated blood, 4 h, N = 2",RTD-5>2>1>4>3
same,effect of peptide alone on TNF release,"[2]; blood incubated 4 h with peptide alone, no stimulus",no effect
same,hierarchy of anti-TNF potencies,THP-1 monocytic cells,RTD-5>2>1>4>3
same,effectiveness in neutralizing E. coli LPS relative to polymyxin B (fold less effective),[3]; 10 min 37°C,50–100 fold
same,neutralization of E. coli LPS,[3],ineffective in neutralizing
same,time to killing of E. coli (absence of viable bacteria),E. coli,≤ 30 min
same,cytotoxicity (trypan blue staining of leukocytes),[4],no cytotoxicity was detected
same,"incidence of focal, non-erythematous swelling at injection site","BALB/c mice; 40 mg/kg s.c. daily, at day 4",2/4
same,"incidence of focal, non-erythematous swelling at injection site","BALB/c mice; 160 mg/kg s.c. daily, by day 3",4/4
same,"histopathology of lungs, kidneys, heart, liver, spleen","BALB/c mice; after 4 day dosing regimen, all peptide levels tested",no abnormalities
same,serum chemistries,"BALB/c mice; daily s.c. injections for 4 days, 2.5–160 mg/kg, basic metabolic panel",indistinguishable from saline-treated controls
same,acute toxicity,"BALB/c mice; daily s.c. injections for 4 days, up to 160 mg/kg (highest dose tested), groups of four",no acute toxicity was observed
same,lobular panniculitis with fat necrosis at injection site,BALB/c mice; multiple injections of 2.5 or 10 mg/kg,absent
same,long term survival,"[5]; single i.v. dose administered 4 h after CLP surgery, 28 days",10 of 11
same,recovery / survival,"[5]; single i.v. dose delayed until 24 h post CLP, through end of trial",4 of 5
same,time highly stable in whole blood,[6],at least 24 h
same,time highly stable in whole blood,[7],at least 24 h
same,time highly stable in whole blood,[8],at least 24 h
same,survival,[9],significantly improved survival
same,anti-RTD-1 antibody,DA rats,no anti-RTD-1 antibody
same,virus neutralization in vitro,[10],did not neutralize the virus
same,toxicity to host cells in vitro,host cells,non-toxic
same,"remaining at 72 h, 50 µg/ml",in vitro,93%
same,stability to heating,"[11]; 100°C, 30 min",completely stable
same,stability to extended storage at pH 2.0,[11]; pH 2.0,completely stable

# From article PMC3516535, “Rhesus Macaque Theta Defensins Suppress Inflammatory Cytokines and Enhance Survival in Mouse Models of Bacteremic Sepsis” (PLoS ONE, 2012)
